Patent US8361496B2, “Phospholipid gel compositions for drug delivery and methods of treating conditions using same” (Idexx Laboratories Inc., priority 2004, dated 2013)

Experiment: Clinical study 5.16: serum concentration of tilmicosin after oral administration
Format: in vivo
Details: oral 20 mg/kg, gelatin capsule with the gel of Example 5.14
Method: Tilmicosin was orally administered to a dog using the pharmaceutical composition of Example 5.14. A sufficient amount of the gel of example 5.14 was placed in a gelatin capsule to provide a dose of 20 mg/kg to the dog. The dog was then orally administered the gelatin capsule containing the tilmicosin pharmaceutical composition of Example 5.14. Blood was then withdrawn from the dog at various time intervals and the serum concentration of tlmicosin determined by the following procedure: (i) A C-18 cartridge (commercially available from Waters Corp. of Milford, Mass.) was connected to a 20 mL syringe and to a single diaphragm vacuum pump (commercially available from Gast Manufacturing Inc. of Benton Harbor, Mich.). […]

time for which tilmicosin is provided in the blood of the dog: at least 48 h
Structure (SMILES): CC[C@H]1OC(=O)C[C@@H](O)[C@H](C)[C@@H](O[C@@H]2O[C@H](C)[C@@H](O)[C@H](N(C)C)[C@H]2O)[C@@H](CCN2C[C@H](C)C[C@H](C)C2)C[C@@H](C)C(=O)/C=C/C(C)=C/[C@@H]1CO[C@@H]1O[C@H](C)[C@@H](O)[C@@H](OC)[C@H]1OC [Tilmicosin]
